Results from the supplement of paper PMC8253809.

How the values were obtained:
[1] = test system: DIPGX29 (H3.3 K27M diffuse intrinsic pontine glioma line); assay: area under dose-response curve of % growth inhibition (log2 RLU vs DMSO / staurosporine), 1e-11 to 1e-4 M (% x log10 M); higher = more growth inhibition
Procedure, shortened: (§1)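 On 1% Geltrex-coated 384-well plates, patient-derived pHGG/DIPG cell lines and astrocytes were treated in triplicate across 10 threefold dilutions (mean top concentration 35 μM) for 7 days, with iAstro treated for 3 days, at 37 °C, 5% CO2. Log2-transformed CellTiter-Glo luminescence was normalised per plate to % activity between solvent and positive controls. Area under the curve was obtained by the trapezoid rule from a log-logistic fit, or from a smoothing spline when that fit failed.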

[2] = test system: DIPGX37 (H3.3 K27M diffuse intrinsic pontine glioma line); assay: as above
Procedure, shortened: as §1

[3] = test system: HGGX39 (paediatric high-grade glioma line); assay: as above
Procedure, shortened: as §1

[4] = test system: HGGX6 (H3.3 G34R paediatric high-grade glioma line); assay: as above
Procedure, shortened: as §1

[5] = test system: DIPGX37; assay: EC50 (inflection of fitted growth-inhibition curve) (log10 M)
Procedure, shortened: (§2)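 Patient-derived pHGG/DIPG cell lines and astrocyte controls were grown on 1% Geltrex-coated 384-well plates and exposed by pin tool to a 10-point threefold dilution series (mean top concentration 35 μM), in triplicate. Exposure was 7 days (iAstro 3 days) at 37 °C, 5% CO2. CellTiter-Glo luminescence was log2-transformed, normalised per plate to % activity between negative (solvent) and positive control wells, and pooled. EC50 and maximal response (yFin) come from the lowest-AICc three- or four-parameter log-logistic fit.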

[6] = test system: DIPGX37; assay: maximal growth inhibition (yFin) relative to DMSO / staurosporine; higher = more efficacious
Procedure, shortened: as §2

[7] = test system: HGGX39; assay: EC50 (inflection of fitted growth-inhibition curve) (log10 M)
Procedure, shortened: as §2

[8] = test system: HGGX39; assay: maximal growth inhibition (yFin) relative to DMSO / staurosporine; higher = more efficacious
Procedure, shortened: as §2

Structure (SMILES)	area under dose-response curve [1]	area under dose-response curve [2]	area under dose-response curve [3]	area under dose-response curve [4]	EC50 (log10 M) [5]	maximal growth inhibition [6]	EC50 (log10 M) [7]	maximal growth inhibition [8]
CCc1ccc(CCOc2ccc(CC3SC(=O)NC3=O)cc2)nc1 (centres undefined) [PIOGLITAZONE]	10.8	35.1	11.2	11.5				
c1cc(CN2CCCNCCNCCCNCC2)ccc1CN1CCCNCCNCCCNCC1 [PLERIXAFOR]	16.6	32.1	21	3.55				
CCN(CC)CCOC(=O)c1ccc(N)cc1 [PROCAINE]	3.12	1.95	1.44	0				
CCc1nc(N)nc(N)c1-c1ccc(Cl)cc1 [PYRIMETHAMINE]	25	6.34	26.5	26.9				
Cc1nc(=O)c2cc(CN(C)c3ccc(C(=O)N[C@@H](CCC(=O)O)C(=O)O)s3)ccc2[nH]1 [RALTITREXED]	26.5	26.9	33.4	16				
Nc1cc(F)ccc1NC(=O)/C=C/c1cnn(C/C=C/c2ccccc2)c1 [RGFP966]	17.1	66.1	13.5	12.3	-4.62	68.6%		
CN(C)C(=O)c1cc2cnc(Nc3ccc(N4CCNCC4)cn3)nc2n1C1CCCC1 [RIBOCICLIB]	13.1	27.7	32.5	17.1			-5.39	21.8%
COc1cc(OC)c2c(=O)[nH]c(-c3cc(C)c(OCCO)c(C)c3)nc2c1 [RVX-208]	5.91	2.33	8.2	12				
O=C(NCC(=O)N1CCCC1)Nc1ccc2cnccc2c1 [SGC-707]	20.9	11.8	31.4	11.3			-4.55	58.4%
COc1ccc(CCc2nc3cc(-c4c(C)noc4C)ccc3n2C[C@H](C)N2CCOCC2)cc1Cl [SGC-CBP30]	7.64	13.9	14	11.7				
CO[C@H]1C[C@@H]2CC[C@@H](C)[C@@](O)(O2)C(=O)C(=O)N2CCCC[C@H]2C(=O)O[C@H]([C@H](C)C[C@@H]2CC[C@@H](O)[C@H](OC)C2)CC(=O)[C@H](C)/C=C(\C)[C@@H](O)[C@@H](OC)C(=O)[C@H](C)C[C@H](C)/C=C/C=C/C=C/1C [SIROLIMUS]	47.3	59.1	58.5	62.6	-4.68	67.7%		
CC1=C(CC(=O)O)c2cc(F)ccc2/C1=C\c1ccc([S+](C)[O-])cc1 (centres undefined) [SULINDAC]	3.44	16.9	4.57	6.88				
CC1(C)CCC(C)(C)c2cc(NC(=O)c3ccc(C(=O)O)cc3)ccc21 [TAMIBAROTENE]	19.3	37.3	44.5	28.3				
CC/C(=C(\c1ccccc1)c1ccc(OCCN(C)C)cc1)c1ccccc1 [TAMOXIFEN]	8.96	50.8	8.92	12.2	-4.61	64.9%		
COc1cccc2c1c(O)c(C(=O)N(C)c1ccc(C(F)(F)F)cc1)c(=O)n2C [TASQUINIMOD]	0	4.17	0	0				
Cn1nnc2c(C(N)=O)ncn2c1=O [TEMOZOLOMIDE]	5.13	15.4	11.3	15.3				
CS(=O)(=O)c1ccc([C@@H](O)[C@@H](CO)NC(=O)C(Cl)Cl)cc1 [THIAMPHENICOL]	15.4	29.7	52	19.8			-6	26%
COc1cc2nccc(Oc3ccc(NC(=O)Nc4cc(C)on4)c(Cl)c3)c2cc1OC [TIVOZANIB]	14.6	31.3	21.7	42.5				
O=c1[nH]c(=O)n([C@H]2C[C@H](O)[C@@H](CO)O2)cc1C(F)(F)F [TRIFLURIDINE]	7.68	22.2	21	3.99				
COc1cc(NCc2ccc3nc(N)nc(N)c3c2C)cc(OC)c1OC [TRIMETREXATE]	51	11.6	28.7	31.9				
CN1[C@@H]2CC[C@H]1C[C@@H](OC(=O)c1c[nH]c3ccccc13)C2 [TROPISETRON]	18.7	33.4	19.5	10.2				
O=C(c1cncc(Br)c1)N1CCC(N2CCCC2)CC1 [UNC669]	0	20.1	0.456	0				
O=C(c1cccc(Br)c1)N1CCC(N2CCCC2)CC1 [UNC926]	8.49	0	8.09	8.91				
O=C(c1ccc(C(=O)N2CCC(N3CCCC3)CC2)c(Nc2ccccc2)c1)N1CCC(N2CCCC2)CC1 [UNC1215]	4.19	15	5.82	6.97				
O=C(NCC(=O)N1CCCCC1)Nc1ccc2nnsc2c1 [UNC2327]	8.94	3.13	5.31	10.6				
CCCS(=O)(=O)Nc1ccc(F)c(C(=O)c2c[nH]c3ncc(-c4ccc(Cl)cc4)cc23)c1F [VEMURAFENIB]	5.27	2.53	7.32	8.94				
Cc1c(F)ccc(C(=O)Nc2cc([N+](=O)[O-])ccc2N2CCN(C)CC2)c1Cl [WDR5-C47]	4.98	27.1	5.16	7.74				
Nc1ccn([C@H]2CC[C@@H](CO)O2)c(=O)n1 [ZALCITABINE]	13.5	14.2	14.5	2.54				
